Columns and labels:
Assay type in all cases: in vivo
[1] = tested on: ragweed (common ragweed, Ambrosia elatior); assay: Test A greenhouse herbicide test, pre- and postemergence
Method in brief: (§1)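 Seeds in loam–sand blend received a preemergence directed soil spray; plants at 2–10 cm, one- to two-leaf stage, received postemergence sprays. Compounds in a non-phytotoxic solvent with surfactant. After about 10 d in a greenhouse, injury rated visually versus untreated controls on a 0–100 scale (100 = complete control).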

[2] = tested on: pigweed (Amaranthus retroflexus); assay: as above
Method in brief: as §1

[3] = tested on: wheat (Triticum aestivum); assay: as above; settings: Postemergence
Method in brief: as §1

corn (Zea mays) = assay: as above; settings: Postemergence
Method in brief: as §1

[4] = tested on: foxtail, giant (giant foxtail, Setaria faberii); assay: as above
Method in brief: as §1

[5] = tested on: ryegrass, Italian (Italian ryegrass, Lolium multiflorum); assay: as above
Method in brief: as §1

[6] = tested on: barnyardgrass (Echinochloa crus-galli); assay: as above
Method in brief: as §1

kochia (Kochia scoparia) [7] = assay: as above
Method in brief: as §1

[8] = tested on: oat, wild (wild oat, Avena fatua); assay: Test C greenhouse herbicide test, postemergence
Method in brief: (§2)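 Steps: pot plants in peat-based medium; spray postemergence at 1- to 4-leaf stage; hold in greenhouse 13 to 15 d; score visually against controls from 0 (no effect) to 100 (complete control).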

kochia (Kochia scoparia) [9] = assay: Test C greenhouse herbicide test, postemergence
Method in brief: as §2

[10] = tested on: blackgrass (Alopecurus myosuroides); assay: Test A greenhouse herbicide test, postemergence
Method in brief: (§3)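 Visual injury score, 0 (no effect) to 100 (complete control), versus untreated controls roughly 10 d after postemergence spray; plants at one- to two-leaf stage, 2 to 10 cm tall, in loam soil and sand, kept in greenhouse.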

[11] = tested on: galium (catchweed bedstraw, Galium aparine); assay: Test A greenhouse herbicide test, postemergence
Method in brief: as §3

[12] = Postemergence, 125 g ai/ha, 0 to 100 scale, 0 no effect, 100 complete control
[13] = Postemergence, 500 g ai/ha, visual rating after approx. 10 d, 0 to 100 scale (0 no effect, 100 complete control)
[14] = Preemergence, 125 g ai/ha, visual injury rating, 0 to 100 scale (0 no effect, 100 complete control), approx. 10 d
[15] = Preemergence, 500 g ai/ha, 0 to 100 scale where 0 is no effect and 100 is complete control
[16] = 125 g ai/ha, 0 to 100 scale, 0 no effect, 100 complete control
[17] = 500 g ai/ha, visual rating after approx. 10 d, 0 to 100 scale (0 no effect, 100 complete control)
[18] = Postemergence, 31 g ai/ha, scale 0 to 100 (0 no effect, 100 complete control)
[19] = Postemergence, 62 g ai/ha, 0 to 100 scale (0 no effect, 100 complete control)
[20] = Postemergence, 250 g ai/ha, scale 0 to 100, 0 is no effect, 100 is complete control
[21] = postemergence, 125 g ai/ha, scale 0 to 100, 0 no effect, 100 complete control

CSCC(=O)Oc1c(C)nn(C)c(=O)c1-c1cccc2ccccc12 [Compound 171]
Plant response rating, Ragweed [1, 12]: 100
Plant response rating, Ragweed [1, 13]: 100
Plant response rating, Ragweed [1, 14]: 70
Plant response rating, Ragweed [1, 15]: 90
Plant response rating, Pigweed [2, 12]: 90
Plant response rating, Pigweed [2, 13]: 100
Plant response rating, Pigweed [2, 14]: 90
Plant response rating, Pigweed [2, 15]: 100
Plant response rating, Wheat [3, 16]: 30
Plant response rating, Wheat [3, 17]: 70
Plant response rating, Corn (corn (Zea mays); [16]): 20
Plant response rating, Corn (corn (Zea mays); [17]): 40
Plant response rating, Foxtail, Giant [4, 12]: 40
Plant response rating, Foxtail, Giant [4, 13]: 90
Plant response rating, Foxtail, Giant [4, 14]: 50
Plant response rating, Foxtail, Giant [4, 15]: 100
Plant response rating, Ryegrass, Italian [5, 12]: 100
Plant response rating, Ryegrass, Italian [5, 13]: 100
Plant response rating, Ryegrass, Italian [5, 14]: 100
Plant response rating, Ryegrass, Italian [5, 15]: 100
Plant response rating, Barnyardgrass [6, 12]: 40
Plant response rating, Barnyardgrass [6, 13]: 90
Plant response rating, Barnyardgrass [6, 14]: 70
Plant response rating, Barnyardgrass [6, 15]: 100
Plant response rating, Kochia (kochia (Kochia scoparia) [7]; [12]): 100
Plant response rating, Kochia (kochia (Kochia scoparia) [7]; [13]): 100
Plant response rating, Kochia (kochia (Kochia scoparia) [7]; [14]): 100
Plant response rating, Kochia (kochia (Kochia scoparia) [7]; [15]): 100
Plant response rating, Oat, Wild [8, 18]: 65
Oat, Wild plant response rating [8, 19]: 90
Plant response rating, Oat, Wild [8, 20]: 95
Oat, Wild plant response rating [8, 21]: 90
Plant response rating, Kochia (kochia (Kochia scoparia) [9]; [18]): 95
Kochia plant response rating (kochia (Kochia scoparia) [9]; [19]): 95
Plant response rating, Kochia (kochia (Kochia scoparia) [9]; [20]): 98
Kochia plant response rating (kochia (Kochia scoparia) [9]; [21]): 98
Plant response rating, Blackgrass [10, 16]: 80
Plant response rating, Blackgrass [10, 17]: 90
Plant response rating, Galium [11, 16]: 90
Plant response rating, Galium [11, 17]: 100
